ChEMBL document CHEMBL2074149, “Structural and functional characteristics and tissue distribution pattern of rat OCTN1, an organic cation transporter, cloned from placenta” (Biochim Biophys Acta, 2000)

Experiments:
Type in all cases: functional, cell-based
[1] = target: T1, OCTN1 (Solute carrier family 22 member 4, SLC22A4) (Rattus norvegicus, UniProt Q9R141); assay: TP_TRANSPORTER: inhibition of TEA uptake by 1-methyl-4-phenylpyridinium at 5mM in Octn1-HRPE cells; parameters: scale not given: the % may be the effect or the level left; settings: human, HRPE cells that express Octn1, probe TEA (tetraethylammonium); read-out: Activity
T1 sequence (Q9R141 whole entry): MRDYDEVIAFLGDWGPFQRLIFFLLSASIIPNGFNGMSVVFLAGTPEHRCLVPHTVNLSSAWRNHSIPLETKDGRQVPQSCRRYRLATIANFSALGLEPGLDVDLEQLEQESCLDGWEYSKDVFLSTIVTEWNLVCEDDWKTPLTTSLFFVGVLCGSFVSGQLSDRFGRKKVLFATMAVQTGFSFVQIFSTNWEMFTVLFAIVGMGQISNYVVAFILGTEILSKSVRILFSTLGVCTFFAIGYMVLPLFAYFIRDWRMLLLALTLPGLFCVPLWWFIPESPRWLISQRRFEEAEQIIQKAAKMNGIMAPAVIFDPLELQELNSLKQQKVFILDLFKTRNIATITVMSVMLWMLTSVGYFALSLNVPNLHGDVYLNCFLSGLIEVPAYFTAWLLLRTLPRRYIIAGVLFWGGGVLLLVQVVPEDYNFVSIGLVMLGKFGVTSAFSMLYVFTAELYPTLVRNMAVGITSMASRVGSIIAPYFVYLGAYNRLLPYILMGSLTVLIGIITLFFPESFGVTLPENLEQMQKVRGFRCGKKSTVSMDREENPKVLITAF

[2] = target: T2, Solute carrier family 22 member 4 (Rattus norvegicus, UniProt Q9R141); assay: TP_TRANSPORTER: inhibition of TEA uptake in Octn1-HRPE cells
T2 sequence (Q9R141 whole entry): T1 sequence (Q9R141 whole entry)

[3] = target: T2, Solute carrier family 22 member 4; assay: TP_TRANSPORTER: inhibition of TEA uptake by Amiloride at 1mM in Octn1-HRPE cells; parameters: scale not given: the % may be the effect or the level left; settings: human, 1000 µM
[4] = target: T1, OCTN1 (Solute carrier family 22 member 4, SLC22A4); assay: TP_TRANSPORTER: inhibition of TEA uptake by Imipramine at 1mM in Octn1-HRPE cells; parameters: scale not given: the % may be the effect or the level left; settings: human, HRPE cells that express Octn1, probe TEA (tetraethylammonium); read-out: Activity
[5] = target: T1, OCTN1 (Solute carrier family 22 member 4, SLC22A4); assay: TP_TRANSPORTER: inhibition of TEA uptake by Verapamil at 5mM in Octn1-HRPE cells; parameters: scale not given: the % may be the effect or the level left; settings: human, HRPE cells that express Octn1, probe TEA (tetraethylammonium); read-out: Activity

Compound	IC50 [2] [mM]	other results
C[n+]1ccc(-c2ccccc2)cc1	–	activity at 5000 µM [1]: 62%
CN(C)c1nc(N)c(C(=O)NC(=N)N)nc1Cl	0.2	–
N=C(N)NC(=O)c1nc(Cl)c(N)nc1N [AMILORIDE]	–	Activity [3]: 79%
CN/C(=N/CCSCc1nc[nH]c1C)NC#N [CIMETIDINE]	1.5	–
CNCCCN1c2ccccc2CCc2ccccc21 [DESIPRAMINE]	0.08	–
CN(C)CCCN1c2ccccc2CCc2ccccc21 [IMIPRAMINE]	–	activity at 1000 µM [4]: 31%
CCN(CC)CCNC(=O)c1ccc(N)cc1 [PROCAINAMIDE]	1	–
CC[N+](CC)(CC)CC [TETRYLAMMONIUM]	1	–
COc1ccc(CCN(C)CCCC(C#N)(c2ccc(OC)c(OC)c2)C(C)C)cc1OC (centres undefined) [VERAPAMIL]	–	activity at 5000 µM [5]: 20%
